ChEMBL document CHEMBL3286306, “Himbacine-derived thrombin receptor antagonists: c7-spirocyclic analogues of vorapaxar” (ACS Med Chem Lett, 2014)

Tests used:
[1] = target: T1, Proteinase-activated receptor 1 (Homo sapiens, UniProt P25116); test: Displacement of [3H]haTRAP from PAR-1 receptor in human platelet membranes after 1 hr by scintillation counting analysis; type: cell membranes
T1 sequence (P25116 whole entry): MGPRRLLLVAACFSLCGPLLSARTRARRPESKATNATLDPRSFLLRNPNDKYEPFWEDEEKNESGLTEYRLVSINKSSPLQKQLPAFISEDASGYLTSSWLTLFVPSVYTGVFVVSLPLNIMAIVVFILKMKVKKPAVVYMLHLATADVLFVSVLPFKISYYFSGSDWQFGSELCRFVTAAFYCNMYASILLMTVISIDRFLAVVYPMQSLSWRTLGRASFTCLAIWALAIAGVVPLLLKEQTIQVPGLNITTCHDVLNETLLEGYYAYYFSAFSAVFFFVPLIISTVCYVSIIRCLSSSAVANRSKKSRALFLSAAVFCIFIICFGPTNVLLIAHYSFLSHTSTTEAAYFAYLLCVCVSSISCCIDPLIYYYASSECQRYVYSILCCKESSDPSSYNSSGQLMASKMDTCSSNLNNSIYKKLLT

[2] = AUC (0 to 6 hrs) in rat at 10 mg/kg, po; type: ADME, organism-based; parameters: time < 6 hr, dose 10 mg/kg, route oral; settings: plasma

SMILES	Ki [1]	AUC(0-t) at 6 h [2]
C[C@H]1OC(=O)[C@@H]2C[C@@H]3C[C@]4(CC[C@H]3[C@H](/C=C/c3ccc(-c5cccc(F)c5)cn3)[C@H]12)COC(=O)N4	15.5 nM	3240 ng·h/mL
C[C@H]1OC(=O)[C@@H]2C[C@@H]3C[C@]4(CC[C@H]3[C@H](/C=C/c3ccc(-c5cccc(C(F)(F)F)c5)cn3)[C@H]12)CNC(=O)O4	392 nM	
C[C@H]1OC(=O)[C@@H]2C[C@@H]3C[C@@]4(CC[C@H]3[C@H](/C=C/c3ccc(-c5ccccc5F)cn3)[C@H]12)COC(=O)N4	25 nM	
C[C@H]1OC(=O)[C@@H]2C[C@@H]3C[C@@]4(CC[C@H]3[C@H](/C=C/c3ccc(-c5ccccn5)cn3)[C@H]12)COC(=O)N4	232 nM	
C[C@H]1OC(=O)[C@@H]2C[C@@H]3C[C@@]4(CC[C@H]3[C@H](/C=C/c3ccc(-c5cccc(C(F)(F)F)c5)cn3)[C@H]12)COC(=O)N4	26.5 nM	
C[C@H]1OC(=O)[C@@H]2C[C@@H]3C[C@]4(CC[C@H]3[C@H](/C=C/c3ccc(-c5cccc(C(F)(F)F)c5)cn3)[C@H]12)COC(=O)N4	21 nM	4920 ng·h/mL

More lines, in order of falling Ki [1], values ahead:

Ki [1]	AUC(0-t) at 6 h [2]	SMILES
267 nM		C[C@H]1OC(=O)[C@@H]2C[C@@H]3C[C@]4(CC[C@H]3[C@H](/C=C/c3ccc(-c5cccc(C#N)c5)cn3)[C@H]12)COC(=O)N4
43 nM		C[C@H]1OC(=O)[C@@H]2C[C@@H]3C[C@@]4(CC[C@H]3[C@H](/C=C/c3ccc(-c5cccc(C#N)c5)cn3)[C@H]12)COC(=O)N4
31.5 nM	3200 ng·h/mL	C[C@H]1OC(=O)[C@@H]2C[C@@H]3C[C@@]4(CC[C@H]3[C@H](/C=C/c3ccc(-c5cccc(C(F)(F)F)c5)cn3)[C@H]12)CNC(=O)O4
28 nM		C[C@H]1OC(=O)[C@@H]2C[C@@H]3C[C@@]4(CC[C@H]3[C@H](/C=C/c3ccc(-c5cccc(F)c5)cn3)[C@H]12)COC(=O)N4
8.9 nM		C[C@H]1OC(=O)[C@@H]2C[C@@H]3C[C@@]4(CC[C@H]3[C@H](/C=C/c3ccc(-c5ccccc5C#N)cn3)[C@H]12)COC(=O)N4
5.1 nM		C[C@H]1OC(=O)[C@@H]2C[C@@H]3C[C@]4(CC[C@H]3[C@H](/C=C/c3ccc(-c5ccccc5C#N)cn3)[C@H]12)COC(=O)N4
